Here are results for two compounds from patent US20240262845A1, “PYRIDINIUM SALTS, METHODS OF MAKING, AND METHODS OF USE” (UNIVERSITY OF WYOMING, priority 2023, published 2024).

Data set [1] in a line: Fluorescence lifetime and emission measurements. The format is physicochemical. As to conditions: 10 μM in H2O, 375 nm excitation. On the procedure: The emission spectra were generated by excitation of a 10 μM solution of either pyridinium salt 2a or pyridinium salt 2b in H2O. Analyses were performed at 375 nm excitation with an emission slit width of 5 nm and an excitation slit width of 5 nm. The emission wavelength was gathered from 400 nm to 600 nm.
FIGS. 9A-9D show fluorescence decay spectra of pyridinium salts 2a and 2b in selected solvents according to at least one embodiment of the present disclosure. Specifically, FIG. 9A is a fluorescence decay spectrum of pyridinium salt 2a in 1,2-dichloroethane, FIG. 9B is a fluorescence decay spectrum of pyridinium salt 2a in CH3CN, FIG. 9C is a fluorescence decay spectrum of pyridinium salt 2a in H2O, and FIG. 9D is a fluorescence decay spectrum of pyridinium salt 2b in H2O. The fluorescent decay spectra were generated with a 1-10 μM solution of pyridinium salt (10 μM for H2O and 1 μM for other solvents) using a GG420 long pass filter and a 375 nm excitation wavelength. The instrument response factor was measured using a highly diluted solution of LUDOX AS-30 colloidal silica in water and a ND1.0 filter. The concentration of LUDOX and the emission slit width were adjusted until the intensity of the instrument response function (IRF) was similar to the fluorescent decay intensity. The procedure given in the EasyLife X User's Manual was followed.

For a further data set, the target named is T1, thioredoxin (Escherichia coli, UniProt P0AA25).
T1 construct: purchased Sigma Aldrich; host or cells: E. coli
The data set is described as follows: Photochemical labeling of thioredoxin with pyridinium salt (General Procedure B, LC/MS). The format is biochemical. Conditions: trypsin digest. On the procedure: General Procedure B: Photochemical Irradiation of Peptides and Proteins: To a 2 mL Pyrex LC/MS vial (Thermo model #03-391-39) were sequentially added solutions containing the desired biomolecule, glutathione (GSH), pyridinium salt, and ammonium acetate (NH4OAc). The resulting solution was diluted to a final volume of 500 μL and then sparged using nitrogen for a minimum of 30 minutes prior to irradiation. The actively sparging solution was then placed in an EvoluChem™ PhotoRedOx Box photoreactor that was equipped with a Kessil, PR160 427 nm LED Lamp and was then irradiated (100% lamp intensity) for the designated time at room temperature while maintaining active sparging. The resultant reaction mixture was then analyzed directly by LC/MS. Analysis of labeling outcomes using LC/MS was performed either by extracted ion chromatogram intensities (method A) or by integrating the area under the peaks associated with peptide content (method B). These values were totaled, and estimated percentages were assigned according to relative intensities of peaks or ion counts.
Labeling of Thioredoxin with Pyridinium Salt 2a (Thioredoxin-2a Conjugate). […] The reaction mixture was directly analyzed by LC/MS using method A and was estimated to have proceeded with 93% conversion and a 14.5:1 mono:di labeled ratio and 3% glutathionylation of all protein content. […]

Counter-ions that a name gives are not always drawn.

T1 sequence (P0AA25 whole entry): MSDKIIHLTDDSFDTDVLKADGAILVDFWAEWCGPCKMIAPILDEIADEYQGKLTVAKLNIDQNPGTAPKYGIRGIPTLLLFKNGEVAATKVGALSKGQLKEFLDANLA

For the compound `COc1ccc2cc(-c3cc(C)[n+](N(C)C(=O)OCCCCC[C@H]4SC[C@H]5NC(=O)N[C@H]54)c(C)c3)ccc2c1` (stereo in doubt) [pyridinium salt 2b, 4-(6-methoxynaphthalen-2-yl)-2,6-dimethyl-1-(methyl(((5-((3aR,4R,6aS)-2-oxohexahydro-1H-thieno[3,4-d]imidazol-4-yl)pentyl)oxy)carbonyl)amino)pyridin-1-ium tetrafluoroborate], in data set [1], the “relative fluorescence quantum yield ΦF1 of pyridinium salt 2b: pyridinium salt 2a” value turned out to be 3.3. For `COC(=O)N(C)[n+]1c(C)cc(-c2ccc3cc(OC)ccc3c2)cc1C` [pyridinium salt 2a, 1-((methoxycarbonyl)(methyl)amino)-4-(6-methoxynapthalen-2-yl)-2,6-dimethylpyridin-1-ium tetrafluoroborate], at thioredoxin, the “Modified Trp” value is on record as “Trp-31”.
